How the values were obtained:
mouse = assay: Oral activity in vivo (audiogenic mouse test and/or MES test); conditions: oral administration
Experimental: The oral bioavailability was tested using the audiogenic mouse test (Audiogenic seizures, R. L. Collins; Chapter 14, pages: 347-372. In: Experimental Models of Epilepsy; By: Pupura, Penry, Tower, Woodbury, Waiter, Raven Press, New York, 1972. Standard Book Number: 0-911216-26-X) and/or the MES test.

OF1 mice [1] = assay: Murine maximal electroshock test (MES test); assay type: in vivo, mouse; conditions: for MES-Test (1 h, po) % protection @ 50: p.o., percentage of protected mice, printed '@ 50' (mg/kg); for ED50: Mus musculus, po, pre-treatment time 1 h
Experimental: Compounds of the invention were tested in OF1 mice using the maximal electroshock test (MES Test) described in detail by Schmutz et al., Naunyn-Schmiedeberg's Arch Pharmacol 1990, 342, 61-66. Briefly, generalized tonic-clonic convulsions of the hind extremities were induced by passing electrical current through temporal electrodes (50 Hz, 18 mA, 0.2 s). […] 30 mg/kg carbamazepine was used as a positive control; mice were classified as protected by a compound if the duration of the seizure lasted only 3 second or less. Five mice were used for each treatment condition and the percentage of protected mice was used as readout (i.e. a compound could give 0%, 20%, 40%, 60%, 80% or 100% protection). Compounds of the invention were given at a dose of 50 mg/kg, p.o., 1 hour prior to induction of convulsions (i.e. “pre-treatment time−1 h”).
ED50 values (ED: effective dose) were calculated using GraphPad Prism, v4.02.
15 s after shock administration, mouse blood was collected for determination of compounds' blood exposure.

OF1 mice [2] = assay: Murine maximal electroshock test (MES test); assay type: in vivo, mouse; conditions: p.o., percentage of protected mice, printed '@ 25' (mg/kg)

Cn1nncc1-c1cc2c(=O)n(NS(C)(=O)=O)c(=O)[nH]c2cc1C(F)(F)F [Comparative, N-(6-(1-methyl-1H-1,2,3-triazol-5-yl)-2,4-dioxo-7-trifluoromethyl-1,4-dihydro-2H-quinazolin-3-yl]-methanesulfonamide, reference compound]
In vivo orally active (mouse): No | MES-Test (1 h, po) % protection @ 50 (OF1 mice [1]): 0% @ 50^

CC(O)c1cc2c(=O)n(NS(C)(=O)=O)c(=O)[nH]c2cc1C(F)(F)F (centres unmarked) [Compound A-1, N-[6-(1-Hydroxy-ethyl)-2,4-dioxo-7-trifluoromethyl-1,4-dihydro-2H-quinazolin-3-yl]-methanesulfonamide]
In vivo orally active (mouse): Yes | ED50 (OF1 mice [1]): 64 mg/kg

COC(C)c1cc2c(=O)n(NS(C)(=O)=O)c(=O)[nH]c2cc1C(F)(F)F (centres unmarked) [Compound A-2, N-[6-(1-Methoxy-ethyl)-2,4-dioxo-7-trifluoromethyl-1,4-dihydro-2H-quinazolin-3-yl]-methanesulfonamide]
In vivo orally active (mouse): Yes | ED50 (OF1 mice [1]): 6 mg/kg

CCC(O)c1cc2c(=O)n(NS(C)(=O)=O)c(=O)[nH]c2cc1C(F)(F)F (centres unmarked) [Compound A-3, N-[6-(1-Hydroxy-propyl)-2,4-dioxo-7-trifluoromethyl-1,4-dihydro-2H-quinazolin-3-yl]-methanesulfonamide]
In vivo orally active (mouse): Yes | ED50 (OF1 mice [1]): 19.6 mg/kg

CC(C)OC(C)c1cc2c(=O)n(NS(C)(=O)=O)c(=O)[nH]c2cc1C(F)(F)F (centres unmarked) [Compound A-4, N-[6-(1-Isopropoxy-ethyl)-2,4-dioxo-7-trifluoromethyl-1,4-dihydro-2H-quinazolin-3-yl]-methanesulfonamide]
In vivo orally active (mouse): Yes | ED50 (OF1 mice [1]): 15.6 mg/kg

CCOC(C)c1cc2c(=O)n(NS(C)(=O)=O)c(=O)[nH]c2cc1C(F)(F)F (centres unmarked) [Compound A-5, N-[6-(1-Ethoxy-ethyl)-2,4-dioxo-7-trifluoromethyl-1,4-dihydro-2H-quinazolin-3-yl]-methanesulfonamide]
In vivo orally active (mouse): Yes | ED50 (OF1 mice [1]): 8.8 mg/kg

CCC(OC(C)C)c1cc2c(=O)n(NS(C)(=O)=O)c(=O)[nH]c2cc1C(F)(F)F (centres unmarked) [Compound A-7, N-[6-(1-Isopropoxy-propyl)-2,4-dioxo-7-trifluoromethyl-1,4-dihydro-2H-quinazolin-3-yl]-methanesulfonamide]
In vivo orally active (mouse): Yes | ED50 (OF1 mice [1]): 24.7 mg/kg

CCOC(CC)c1cc2c(=O)n(NS(C)(=O)=O)c(=O)[nH]c2cc1C(F)(F)F (centres unmarked) [Compound A-13, N-[6-(1-Ethoxy-propyl)-2,4-dioxo-7-trifluoromethyl-1,4-dihydro-2H-quinazolin-3-yl]-methanesulfonamide]
In vivo orally active (mouse): Yes

CC(OC1CCCC1)c1cc2c(=O)n(NS(C)(=O)=O)c(=O)[nH]c2cc1C(F)(F)F (centres unmarked) [Compound A-14, N-[6-(1-Cyclopentyloxy-ethyl)-2,4-dioxo-7-trifluoromethyl-1,4-dihydro-2H-quinazolin-3-yl]-methanesulfonamide]
In vivo orally active (mouse): yes

CCCC(O)c1cc2c(=O)n(NS(C)(=O)=O)c(=O)[nH]c2cc1C(F)(F)F (centres unmarked) [Compound A-15, N-[6-(1-Hydroxy-butyl)-2,4-dioxo-7-trifluoromethyl-1,4-dihydro-2H-quinazolin-3-yl]-methanesulfonamide]
In vivo orally active (mouse): Yes | ED50 (OF1 mice [1]): 35 mg/kg

COCCC(O)c1cc2c(=O)n(NS(C)(=O)=O)c(=O)[nH]c2cc1C(F)(F)F (centres unmarked) [Compound A-18, N-[6-(1-Hydroxy-3-methoxy-propyl)-2,4-dioxo-7-trifluoromethyl-1,4-dihydro-2H-quinazolin-3-yl]-methanesulfonamide]
In vivo orally active (mouse): Yes

CS(=O)(=O)Nn1c(=O)[nH]c2cc(C(F)(F)F)c(C3CCCO3)cc2c1=O (centres unmarked) [Compound B-2, N-[2,4-Dioxo-6-(tetrahydro-furan-2-yl)-7-trifluoromethyl-1,4-dihydro-2H-quinazolin-3-yl]-methanesulfonamide]
In vivo orally active (mouse): Yes

CS(=O)(=O)Nn1c(=O)[nH]c2cc(C(F)(F)F)c(C3CCOC3)cc2c1=O (centres unmarked) [Compound B-3, N-[2,4-Dioxo-6-(tetrahydro-furan-3-yl)-7-trifluoromethyl-1,4-dihydro-2H-quinazolin-3-yl]-methanesulfonamide]
In vivo orally active (mouse): Yes | MES-Test (1 h, po) % protection @ 25 (OF1 mice [2]): 20% @ 25^3

COCCn1nccc1-c1cc2c(=O)n(NS(C)(=O)=O)c(=O)[nH]c2cc1C(C)C [Compound C-1, N-{7-Isopropyl-6-[2-(2-methoxy-ethyl)-2H-pyrazol-3-yl]-2,4-dioxo-1,4-dihydro-2H-quinazolin-3-yl}-methanesulfonamide]
In vivo orally active (mouse): yes | MES-Test (1 h, po) % protection @ 25 (OF1 mice [2]): 40% @ 25^

CC(C)n1nccc1-c1cc2c(=O)n(NS(C)(=O)=O)c(=O)[nH]c2cc1C(F)(F)F [Compound C-2, N-[6-(2-Isopropyl-2H-pyrazol-3-yl)-2,4-dioxo-7-trifluoromethyl-1,4-dihydro-2H-quinazolin-3-yl]-methanesulfonamide]
In vivo orally active (mouse): Yes | ED50 (OF1 mice [1]): 17.7 mg/kg

COCCn1nccc1-c1cc2c(=O)n(NS(C)(=O)=O)c(=O)[nH]c2cc1C(F)(F)F [Compound C-4, N-{6-[2-(2-Methoxy-ethyl)-2H-pyrazol-3-yl]-2,4-dioxo-7-trifluoromethyl-1,4-dihydro-2H-quinazolin-3-yl}-methanesulfonamide]
In vivo orally active (mouse): Yes

CS(=O)(=O)Nn1c(=O)[nH]c2cc(C(F)(F)F)c(-c3ccnn3O)cc2c1=O [Compound C-5, N-[6-(2-Hydroxy-2H-pyrazol-3-yl)-2,4-dioxo-7-trifluoromethyl-1,4-dihydro-2H-quinazolin-3-yl]-methanesulfonamide]
In vivo orally active (mouse): Yes

CCc1cc2[nH]c(=O)n(NS(C)(=O)=O)c(=O)c2cc1-c1ccnn1C(C)C [Compound C-6, N-[7-Ethyl-6-(2-isopropyl-2H-pyrazol-3-yl)-2,4-dioxo-1,4-dihydro-2H-quinazolin-3-yl]-methanesulfonamide]
In vivo orally active (mouse): yes | MES-Test (1 h, po) % protection @ 50 (OF1 mice [1]): 20% @ 50^

CC(C)c1cc2[nH]c(=O)n(NS(C)(=O)=O)c(=O)c2cc1-c1ccnn1C [Compound C-7, N-[7-Isopropyl-6-(2-methyl-2H-pyrazol-3-yl)-2,4-dioxo-1,4-dihydro-2H-quinazolin-3-yl]-methanesulfonamide]
In vivo orally active (mouse): Yes | ED50 (OF1 mice [1]): 6.9 mg/kg

CC(C)c1cc2[nH]c(=O)n(NS(C)(=O)=O)c(=O)c2cc1-c1ccnn1C(C)C [Compound C-8, N-[7-Isopropyl-6-(2-isopropyl-2H-pyrazol-3-yl)-2,4-dioxo-1,4-dihydro-2H-quinazolin-3-yl]-methanesulfonamide]
In vivo orally active (mouse): yes | MES-Test (1 h, po) % protection @ 50 (OF1 mice [1]): 40% @ 50^

Cn1nccc1-c1cc2c(=O)n(NS(C)(=O)=O)c(=O)[nH]c2cc1C(F)F [Compound C-9, N-[7-Difluoromethyl-6-(2-methyl-2H-pyrazol-3-yl)-2,4-dioxo-1,4-dihydro-2H-quinazolin-3-yl]-methanesulfonamide]
In vivo orally active (mouse): Yes | ED50 (OF1 mice [1]): 7.5 mg/kg

CC(C)n1nccc1-c1cc2c(=O)n(NS(C)(=O)=O)c(=O)[nH]c2cc1C(F)F [Compound C-10, N-[7-Difluoromethyl-6-(2-isopropyl-2H-pyrazol-3-yl)-2,4-dioxo-1,4-dihydro-2H-quinazolin-3-yl]-methanesulfonamide]
In vivo orally active (mouse): Yes | ED50 (OF1 mice [1]): 20.3 mg/kg

CCc1cc2[nH]c(=O)n(NS(C)(=O)=O)c(=O)c2cc1-c1ccnn1C [Compound C-11, N-[7-Ethyl-6-(2-methyl-2H-pyrazol-3-yl)-2,4-dioxo-1,4-dihydro-2H-quinazolin-3-yl]-methanesulfonamide]
In vivo orally active (mouse): Yes | ED50 (OF1 mice [1]): 6.1 mg/kg

CCc1cc2[nH]c(=O)n(NS(C)(=O)=O)c(=O)c2cc1-c1ccnn1CC [Compound C-12, N-[7-Ethyl-6-(2-ethyl-2H-pyrazol-3-yl)-2,4-dioxo-1,4-dihydro-2H-quinazolin-3-yl]-methanesulfonamide]
In vivo orally active (mouse): Yes | ED50 (OF1 mice [1]): 42.8 mg/kg

CC(C)n1nccc1-c1cc2c(=O)n(NS(C)(=O)=O)c(=O)[nH]c2cc1C(C)(F)F [Compound C-16, N-[7-(1,1-difluoro-ethyl)-6-(2-isopropyl-2H-pyrazol-3-yl)-2,4-dioxo-1,4-dihydro-2H-quinazolin-3-yl]-methanesulfonamide]
In vivo orally active (mouse): Yes

CC(F)c1cc2[nH]c(=O)n(NS(C)(=O)=O)c(=O)c2cc1-c1ccnn1C(C)C (centres unmarked) [Compound C-17, N-[7-(1-fluoro-ethyl)-6-(2-isopropyl-2H-pyrazol-3-yl)-2,4-dioxo-1,4-dihydro-2H-quinazolin-3-yl]-methanesulfonamide]
In vivo orally active (mouse): Yes | ED50 (OF1 mice [1]): > 20 mg/kg

Cn1nccc1-c1cc2c(=O)n(NS(C)(=O)=O)c(=O)[nH]c2cc1C(F)(F)F [Compound C-18, N-[6-(2-Methyl-2H-pyrazol-3-yl)-2,4-dioxo-7-trifluoromethyl-1,4-dihydro-2H-quinazolin-3-yl]-methanesulfonamide]
In vivo orally active (mouse): Yes | ED50 (OF1 mice [1]): 14.8 mg/kg

From patent US20120122903A1, “1-H-QUINAZOLINE-2, 4-DIONES FOR USE IN THE TREATMENT OF NEURONAL CEROID LIPOFUSCINOSIS” (priority 2009, published 2012)
